Results from patent US9096598B2 (Merck Sharp & Dohme Corp., priority 2011, dated 2015).
pIC50: −log10 of the molar value.

Legend:
JAK3 = molecular target: T1, JAK3 (Homo sapiens, UniProt P52333); test: Jak Biochemical HTRF Assay (JAK3); settings: recombinant purified GST-tagged catalytic domain, [ATP] 2.9 μM, values given as range classes
T1 construct: recombinant purified GST-tagged catalytic domain for each enzyme; purchased Invitrogen M4290
Description: (§1) Jak Biochemical HTRF Assay Protocol
(§2) The ability of compounds to inhibit the activity of JAK1, JAK2, JAK3, and Tyk2 was measured using a recombinant purified GST-tagged catalytic domain for each enzyme (Invitrogen JAK1 #M4290, JAK2 #M4290, JAK3 #M4290, Tyk2 #M4290) in an HTRF format biochemical assay. The reactions employed a common peptide substrate, LCB-EQEDEPEGDYFEWLW-NH2 (in-house). The basic assay protocol is as follows: First, 250 nL of diluted compounds in DMSO were dispensed into the wells of a dry 384-well Black plate (Greiner #781076) using a Labcyte Echo 555 acoustic dispenser. Subsequent reagent additions employed an Agilent Bravo. Next, 18 μL of 1.11× enzyme and 1.11× substrate in 1× assay buffer (Invitrogen kinase buffer #PV3189, 2 mM DTT, 0.05% BSA) were added to the wells and shaken and then preincubated for 30 minutes at room temperature to allow compound binding to equilibrate. After equilibration, 2 μL of 10×ATP in 1× assay buffer was added to initiate the kinase reaction and the plates were shaken and then incubated at room temperature for 120 minutes. At the end of the incubation, 20 μL of 2× stop buffer (streptavidin-Dylight 650 (Thermo #84547B/100 mL), Eu-tagged pY20 antibody (Perkin Elmer #AD0067), EDTA, HEPES, and Triton) was added to quench the reaction. Plates were shaken and centrifuged and then incubated 60 minutes at room temperature and then read on a Perkin Elmer Envision (λex=337 nm, λem=665 and 615 nm, TRF delay time=20 μs). HTRF signal=10,000*665 nm reading/615 nm reading. After normalization to untreated controls, the percent inhibition of the HTRF signal at each compound concentration was calculated. The plot of percent inhibition versus the log of compound concentration was fit with a 4-parameter dose response equation to calculate IC50 values.
(§3) Final reaction conditions were:
(§4) Examples of the instant invention were evaluated in JAK2 and JAK3 in vitro binding assays. Table 13 tabulates the biological data disclosed for the instant invention as a range of JAK2 and JAK3 IC50 values (A: IC50≦10 nM; B: 10 nM>IC50≦500 nM C: IC50>500 nM).

JAK2 = molecular target: T2, JAK2 (Homo sapiens, UniProt O60674); test: Jak Biochemical HTRF Assay (JAK2); settings: recombinant purified GST-tagged catalytic domain, [ATP] 8.5 μM, values given as range classes
T2 construct: recombinant purified GST-tagged catalytic domain for each enzyme; purchased Invitrogen M4290
Description: as §1, §2, §3, §4

T2 sequence (O60674 849-1124 limits assumed): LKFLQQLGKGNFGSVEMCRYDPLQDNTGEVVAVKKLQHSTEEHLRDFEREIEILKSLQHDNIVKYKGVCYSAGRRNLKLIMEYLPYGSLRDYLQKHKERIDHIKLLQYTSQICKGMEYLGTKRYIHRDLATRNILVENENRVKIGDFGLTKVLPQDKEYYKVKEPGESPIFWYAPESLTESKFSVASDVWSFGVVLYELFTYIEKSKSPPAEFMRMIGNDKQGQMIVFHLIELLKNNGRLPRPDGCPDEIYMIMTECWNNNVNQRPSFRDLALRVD
T1 sequence (P52333 822-1111 limits assumed): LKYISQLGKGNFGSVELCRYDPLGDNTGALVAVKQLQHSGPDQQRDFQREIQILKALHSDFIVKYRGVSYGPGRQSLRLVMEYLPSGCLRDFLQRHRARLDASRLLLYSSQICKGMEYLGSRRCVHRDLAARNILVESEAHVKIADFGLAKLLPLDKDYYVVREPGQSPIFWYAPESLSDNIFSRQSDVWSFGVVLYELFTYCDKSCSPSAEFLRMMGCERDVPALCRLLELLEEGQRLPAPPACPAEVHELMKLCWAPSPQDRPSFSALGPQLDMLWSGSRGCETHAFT

Row | Structure (SMILES) | pIC50 (JAK3) | pIC50 (JAK2)
1 | CC(C)C(Nc1cncc(-c2c[nH]c3ncc(NS(C)(=O)=O)cc23)c1)C(=O)NCC(F)(F)F (racemic) [Example 5-3, N^2-(5-{5-[(methylsulfonyl)amino]-1H-pyrrolo[2,3-b]pyridin-3-yl}pyridin-3-yl)-N-(2,2,2-trifluoroethyl)valinamide] | 6.30 to 8.00 | 6.30 to 8.00
2 | Clc1cnc2[nH]cc(-c3nncc(N4CCCC4c4nccs4)n3)c2c1 (centres unmarked) [Example 1-5, 5-chloro-3-{5-[2-(1,3-thiazol-2-yl)pyrrolidin-1-yl]-1,2,4-triazin-3-yl}-1H-pyrrolo[2,3-b]pyridine] | 6.30 to 8.00 | 6.30 to 8.00
3 | C[C@@H](Nc1cnnc(-c2c[nH]c3ncc(F)cc23)n1)C(=O)NCC(F)(F)F [Example 1-8, N~2~-[3-(5-fluoro-1H-pyrrolo[2,3-b]pyridin-3-yl)-1,2,4-triazin-5-yl]-N-(2,2,2-trifluoroethyl)-D-alaninamide] | 6.30 to 8.00 | 6.30 to 8.00
4 | CC1c2ncc(C(F)(F)F)n2CCN1c1cnnc(-c2c[nH]c3ncc(F)cc23)n1 (centres unmarked) [Example 1-10, 7-[3-(5-fluoro-1H-pyrrolo[2,3-b]pyridin-3-yl)-1,2,4-triazin-5-yl]-8-methyl-3-(trifluoromethyl)-5,6,7,8-tetrahydroimidazo[1,2-a]pyrazine] | 6.30 to 8.00 | 6.30 to 8.00
5 | Fc1cnc2[nH]cc(-c3nncc(N4CCCC4c4nccs4)n3)c2c1 (centres unmarked) [Example 1-11, 5-fluoro-3-{5-[2-(1,3-thiazol-2-yl)pyrrolidin-1-yl]-1,2,4-triazin-3-yl}-1H-pyrrolo[2,3-b]pyridine] | 6.30 to 8.00 | 6.30 to 8.00
6 | N#Cc1cnc2[nH]cc(-c3nncc(N4CCCC4c4nccs4)n3)c2c1 (centres unmarked) [Example 1-12, 3-{5-[2-(1,3-thiazol-2-yl)pyrrolidin-1-yl]-1,2,4-triazin-3-yl}-1H-pyrrolo[2,3-b]pyridine-5-carbonitrile] | 6.30 to 8.00 | 6.30 to 8.00
7 | CC(C)[C@@H](Nc1cnnc(-c2c[nH]c3ncc(F)cc23)n1)C(=O)NCC(F)(F)F [Example 1-16, N~2~-[3-(5-fluoro-1H-pyrrolo[2,3-b]pyridin-3-yl)-1,2,4-triazin-5-yl]-N-(2,2,2-trifluoroethyl)-D-valinamide] | ≥ 8.00 | 6.30 to 8.00
8 | CC(C)[C@@H](Nc1cnnc(-c2c[nH]c3ncc(C#N)cc23)n1)C(=O)NCC(F)(F)F [Example 1-17, N~2~-[3-(5-cyano-1H-pyrrolo[2,3-b]pyridin-3-yl)-1,2,4-triazin-5-yl]-N-(2,2,2-trifluoroethyl)-D-valinamide] | ≥ 8.00 | 6.30 to 8.00
9 | CC(C)[C@@H](Nc1cnnc(-c2c[nH]c3ncc(C(N)=O)cc23)n1)C(=O)NCC(F)(F)F [Example 1-18, 3-[5-({(1R)-2-methyl-1-[(2,2,2-trifluoroethyl)carbamoyl]propyl}amino)-1,2,4-triazin-3-yl]-1H-pyrrolo[2,3-b]pyridine-5-carboxamide] | ≥ 8.00 | 6.30 to 8.00
10 | O=C(NCC(F)(F)F)[C@H]1CCCC[C@H]1Nc1cnnc(-c2c[nH]c3ncc(Cl)cc23)n1 [Example 1-19, (1S,2R)-2-{[3-(5-chloro-1H-pyrrolo[2,3-b]pyridin-3-yl)-1,2,4-triazin-5-yl]amino}-N-(2,2,2-trifluoroethyl)cyclohexane-carboxamide] | 6.30 to 8.00 | 6.30 to 8.00
11 | COc1cnc2[nH]cc(-c3nncc(N[C@@H](C(=O)NCC(F)(F)F)C(C)C)n3)c2c1 [Example 1-20, N~2~-[3-(5-methoxy-1H-pyrrolo[2,3-b]pylidin-3-yl)-1,2,4-triazin-5-yl]-N-(2,2,2-trifluoroethyl)-D-valinamide] | ≥ 8.00 | 6.30 to 8.00
12 | O=C(NCC(F)(F)F)[C@H]1CCCC[C@H]1Nc1cnnc(-c2c[nH]c3ncc(F)cc23)n1 [Example 1-21, (1S,2R)-2-{[3-(5-fluoro-1H-pyrrolo[2,3-b]pyridin-3-yl)-1,2,4-triazin-5-yl]amino}-N-(2,2,2-trifluoroethyl)cyclohexane-carboxamide] | 6.30 to 8.00 | < 6.30
13 | N#Cc1cnc2[nH]cc(-c3nncc(N[C@@H]4CCCC[C@@H]4C(=O)NCC(F)(F)F)n3)c2c1 [Example 1-22, (1S,2R)-2-{[3-(5-cyano-1H-pyrrolo[2,3-b]pyridin-3-yl)-1,2,4-triazin-5-yl]amino}-N-(2,2,2-trifluoroethyl)cyclohexane-carboxamide] | 6.30 to 8.00 | 6.30 to 8.00
14 | NC(=O)c1cnc2[nH]cc(-c3nncc(N[C@@H]4CCCC[C@@H]4C(=O)NCC(F)(F)F)n3)c2c1 [Example 1-23, 3-[5-({(1R,2S)-2-[(2,2,2-trifluoroethyl)carbamoyl]cyclo-hexyl}amino)-1,2,4-triazin-3-yl]-1H-pyrrolo[2,3-b]pyridine-5-carboxamide] | 6.30 to 8.00 | 6.30 to 8.00

The remaining lines, values ahead:

Row | pIC50 (JAK3) | pIC50 (JAK2) | Structure (SMILES)
15 | ≥ 8.00 | ≥ 8.00 | CC(C)C(Nc1cncc(-c2c[nH]c3ncc(-c4cnn(C)c4)cc23)c1)C(=O)NCC(F)(F)F (racemic) [Example 8-1, N^2-{5-[5-(1-methyl-1H-pyrazol-4-yl)-1H-pyrrolo[2,3-b]pyridin-3-yl]pyridin-3-yl}-N-(2,2,2-trifluoroethyl)valinamide]
16 | ≥ 8.00 | 6.30 to 8.00 | CC(C)[C@@H](Nc1cncc(-c2c[nH]c3ncc(Cl)cc23)c1)C(=O)NCC(F)(F)F (single isomer, unassigned) [Example 1-1]
17 | ≥ 8.00 | 6.30 to 8.00 | CC(C)C(Nc1cncc(-c2c[nH]c3ncc(F)cc23)c1)C(=O)NCC(F)(F)F (centres unmarked) [Example 1-2, 2-{[5-(5-fluoro-1H-pyrrolo[2,3-b]pyridin-3-yl)pyridin-3-yl]amino}-3-methyl-N-(2,2,2-trifluoroethyl)butanamide]
18 | ≥ 8.00 | 6.30 to 8.00 | CC(C)[C@@H](Nc1cnnc(-c2c[nH]c3ncc(Cl)cc23)n1)C(=O)NCC(F)(F)F [Example 1-3, N~2~-[3-(5-chloro-1H-pyrrolo[2,3-b]pyridin-3-yl)-1,2,4-triazin-5-yl]-N-(2,2,2-trifluoroethyl)-D-valinamide]
19 | ≥ 8.00 | 6.30 to 8.00 | CC1c2ncc(C(F)(F)F)n2CCN1c1cnnc(-c2c[nH]c3ncc(Cl)cc23)n1 (centres unmarked) [Example 1-4, 7-[3-(5-chloro-1H-pyrrolo[2,3-b]pyridin-3-yl)-1,2,4-triazin-5-yl]-8-methyl-3-(trifluoromethyl)-5,6,7,8-tetrahydroimidazo[1,2-a]pyrazine]
20 | ≥ 8.00 | 6.30 to 8.00 | CC(C)(Nc1cnnc(-c2c[nH]c3ncc(F)cc23)n1)C(=O)NCC(F)(F)F [Example 1-6, N~2~-[3-(5-fluoro-1H-pyrrolo[2,3-b]pyridin-3-yl)-1,2,4-triazin-5-yl]-2-methyl-N-(2,2,2-trifluoroethyl)alaninamide]
21 | ≥ 8.00 | 6.30 to 8.00 | CC(C)(Nc1cnnc(-c2c[nH]c3ncc(C#N)cc23)n1)C(=O)NCC(F)(F)F [Example 1-7, N~2~-[3-(5-cyano-1H-pyrrolo[2,3-b]pyridin-3-yl)-1,2,4-triazin-5-yl]-2-methyl-N-(2,2,2-trifluoroethyl)alaninamide]
22 | ≥ 8.00 | 6.30 to 8.00 | C[C@@H](Nc1cnnc(-c2c[nH]c3ncc(C#N)cc23)n1)C(=O)NCC(F)(F)F [Example 1-9, N~2~-[3-(5-cyano-1H-pyrrolo[2,3-b]pyridin-3-yl)-1,2,4-triazin-5-yl]-N-(2,2,2-trifluoroethyl)-D-alaninamide]
23 | ≥ 8.00 | 6.30 to 8.00 | CC(C)(Nc1cnnc(-c2c[nH]c3ncc(C(N)=O)cc23)n1)C(=O)NCC(F)(F)F [Example 1-13, 3-[5-({1,1-dimethyl-2-oxo-2-[(2,2,2-trifluoroethyl)amino]ethyl}amino)-1,2,4-triazin-3-yl]-1H-pyrrolo[2,3-b]pyridine-5-carboxamide]
24 | ≥ 8.00 | 6.30 to 8.00 | C[C@@H](Nc1cnnc(-c2c[nH]c3ncc(C(N)=O)cc23)n1)C(=O)NCC(F)(F)F [Example 1-14, 3-[5-({(1R)-1-methyl-2-oxo-2-[(2,2,2-trifluoroethyl)amino]ethyl}amino)-1,2,4-triazin-3-yl]-1H-pyrrolo[2,3-b]pyridine-5-carboxamide]
25 | ≥ 8.00 | 6.30 to 8.00 | CC1c2ncc(C(F)(F)F)n2CCN1c1cnnc(-c2c[nH]c3ncc(C(N)=O)cc23)n1 (centres unmarked) [Example 1-15, 3-{5-[8-methyl-3-(trifluoromethyl)-5,6-dihydroimidazo[1,2-a]pyrazin-7(8H)-yl]-1,2,4-triazin-3-yl}-1H-pyrrolo[2,3-b]pyridine-5-carboxamide]
